Assay: Dissolution temperature of coupler in tricresyl phosphate and ethyl acetate
Format: physicochemical
Details: 1 g coupler, tricresyl phosphate of equal weight and ethyl acetate of three times the weight; temperature at which the coupler was completely dissolved
Source text: Structures of comparative couplers a to e are respectively shown below. [drawing 115] [drawing 116] [drawing 117] [drawing 118] [drawing 119]

Dissolution Temperature [°C] | Compound
60 | CCC(C)(C)c1ccc(OCCCCNC(=O)c2nn3c(-c4cc(Cl)cc(Cl)c4)n[nH]c3c2Cl)c(C(C)(C)CC)c1 [Coupler b]
60 | CCC(C)(C)c1ccc(OCCCCNC(=O)C(NC(=O)c2nn3c(-c4ccc(Cl)c(Cl)c4)n[nH]c3c2Cl)C(C)C)c(C(C)(C)CC)c1 (centres unmarked) [Coupler d]
